Measurements as given in ChEMBL document CHEMBL1909046, “DrugMatrix in vitro pharmacology data”.

Columns and labels:
[1] = DRUGMATRIX: ATPase, Na+/K+ enzyme inhibition (substrate: ATP); format: tissue-based, Sus scrofa, Heart; conditions: Not Active = under 50% inhibition at 10 µM
[2] = DRUGMATRIX: Atrial Natriuretic Factor (ANF) radioligand binding (ligand: [125I] ANF (rat)); format: cell membranes, Cavia porcellus, Dunkin-Hartley, Adrenal gland, Membrane; conditions: Not Active = under 50% inhibition at 10 µM
[3] = DRUGMATRIX: Calcium Channel Type L, Dihydropyridine radioligand binding (ligand: [3H] Nitrendipine); format: cell membranes, Rattus norvegicus, Wistar, Cerebral cortex, Membrane; conditions: Not Active = under 50% inhibition at 10 µM
[4] = biological target: T1, Vasoactive intestinal polypeptide receptor 1 (Homo sapiens, UniProt P32241); format: cell membranes, Membrane; conditions: ht-29; note: in other assays of this panel Not Active means under 50% inhibition at 10 µM
T1 sequence (P32241 whole entry): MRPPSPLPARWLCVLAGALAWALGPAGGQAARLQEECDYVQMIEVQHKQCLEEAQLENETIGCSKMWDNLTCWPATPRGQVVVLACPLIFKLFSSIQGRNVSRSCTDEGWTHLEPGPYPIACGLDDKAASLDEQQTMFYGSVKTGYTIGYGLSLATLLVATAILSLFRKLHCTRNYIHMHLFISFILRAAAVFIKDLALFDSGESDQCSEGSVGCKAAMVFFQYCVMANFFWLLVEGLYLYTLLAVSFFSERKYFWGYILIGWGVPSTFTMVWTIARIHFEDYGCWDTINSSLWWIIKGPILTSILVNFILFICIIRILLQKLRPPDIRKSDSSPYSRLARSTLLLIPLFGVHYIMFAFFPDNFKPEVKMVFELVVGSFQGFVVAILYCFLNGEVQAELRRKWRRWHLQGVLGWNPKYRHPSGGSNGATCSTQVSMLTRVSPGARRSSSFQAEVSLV

[5] = biological target: Cannabinoid receptor 1 (Homo sapiens, UniProt P21554); format: cell membranes, Chem-1, Membrane; conditions: chem-1; note: in other assays of this panel Not Active means under 50% inhibition at 10 µM
[6] = DRUGMATRIX: Phosphodiesterase PDE3 enzyme inhibition (substrate: [3H]cAMP + cAMP); format: tissue-based, Homo sapiens; conditions: platelet; Not Active = under 50% inhibition at 10 µM
[7] = biological target: Acetylcholinesterase (Homo sapiens, UniProt P22303); test: DRUGMATRIX: Acetylcholinesterase enzyme inhibition (substrate: acetylthiocholine); format: cell-based, HEK293; conditions: hek293; Not Active = under 50% inhibition at 10 µM
[8] = biological target: Cytochrome P450 2E1 (Homo sapiens, UniProt P05181); conditions: bti-tn-5b1-4; note: in other assays of this panel Not Active means under 50% inhibition at 10 µM
Chain of Cytochrome P450 2E1 (P05181 whole entry): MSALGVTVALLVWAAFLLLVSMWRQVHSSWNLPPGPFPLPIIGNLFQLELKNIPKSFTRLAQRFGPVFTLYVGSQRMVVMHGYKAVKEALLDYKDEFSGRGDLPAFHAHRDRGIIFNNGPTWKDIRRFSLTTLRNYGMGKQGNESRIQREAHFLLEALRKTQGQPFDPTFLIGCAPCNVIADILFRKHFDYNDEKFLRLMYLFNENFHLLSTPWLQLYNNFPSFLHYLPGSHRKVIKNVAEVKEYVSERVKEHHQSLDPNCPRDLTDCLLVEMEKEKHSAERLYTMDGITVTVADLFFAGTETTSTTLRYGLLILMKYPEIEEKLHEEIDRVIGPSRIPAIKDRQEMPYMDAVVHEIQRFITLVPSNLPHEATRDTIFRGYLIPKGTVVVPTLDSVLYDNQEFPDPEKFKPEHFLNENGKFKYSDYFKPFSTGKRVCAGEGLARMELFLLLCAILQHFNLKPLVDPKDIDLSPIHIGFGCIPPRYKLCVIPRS

Chain of Cannabinoid receptor 1 (P21554 whole entry): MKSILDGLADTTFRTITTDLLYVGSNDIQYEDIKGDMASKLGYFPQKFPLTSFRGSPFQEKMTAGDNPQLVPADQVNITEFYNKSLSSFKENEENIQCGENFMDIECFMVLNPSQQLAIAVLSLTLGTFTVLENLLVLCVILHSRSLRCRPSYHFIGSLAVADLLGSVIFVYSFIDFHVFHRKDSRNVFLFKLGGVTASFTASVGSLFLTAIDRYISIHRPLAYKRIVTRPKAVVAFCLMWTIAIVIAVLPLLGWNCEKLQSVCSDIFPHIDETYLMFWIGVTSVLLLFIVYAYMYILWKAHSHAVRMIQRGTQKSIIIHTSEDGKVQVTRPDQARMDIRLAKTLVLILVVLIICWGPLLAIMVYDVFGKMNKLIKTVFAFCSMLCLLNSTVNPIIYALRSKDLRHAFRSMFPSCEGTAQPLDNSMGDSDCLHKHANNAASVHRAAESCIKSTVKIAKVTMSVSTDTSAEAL
Chain of Acetylcholinesterase (P22303 whole entry): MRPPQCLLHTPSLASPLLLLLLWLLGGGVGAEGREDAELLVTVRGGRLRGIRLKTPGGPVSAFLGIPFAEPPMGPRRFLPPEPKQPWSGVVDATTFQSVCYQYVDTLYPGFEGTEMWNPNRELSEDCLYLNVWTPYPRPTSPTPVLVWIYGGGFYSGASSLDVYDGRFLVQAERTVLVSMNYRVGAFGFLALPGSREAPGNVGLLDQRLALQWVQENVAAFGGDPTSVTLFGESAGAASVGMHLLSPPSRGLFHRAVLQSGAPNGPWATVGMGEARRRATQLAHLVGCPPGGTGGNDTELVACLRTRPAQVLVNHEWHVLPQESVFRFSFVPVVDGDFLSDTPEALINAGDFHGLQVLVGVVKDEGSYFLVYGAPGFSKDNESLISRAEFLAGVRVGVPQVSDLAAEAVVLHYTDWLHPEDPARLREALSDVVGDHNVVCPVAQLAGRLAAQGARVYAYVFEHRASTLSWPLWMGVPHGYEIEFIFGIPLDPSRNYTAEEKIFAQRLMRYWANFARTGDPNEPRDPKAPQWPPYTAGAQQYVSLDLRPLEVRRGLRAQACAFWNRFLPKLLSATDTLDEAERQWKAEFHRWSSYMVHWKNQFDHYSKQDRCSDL

NNCCc1ccccc1 [PHENELZINE]
Not Active: IC50 [1] | Ki [1] | IC50 [2] | Ki [2] | IC50 [3] | Ki [3] | IC50 [4] | IC50 [5] | IC50 [6] | Ki [6] | IC50 [7] | IC50 [8] | Ki [8]

CCc1ccc(CCOc2ccc(CC3SC(=O)NC3=O)cc2)nc1 (stereo not drawn) [PIOGLITAZONE]
Not Active: IC50 [1] | Ki [1] | IC50 [2] | Ki [2] | IC50 [3] | Ki [3] | IC50 [4] | IC50 [5] | IC50 [6] | Ki [6] | IC50 [7] | IC50 [8] | Ki [8]

CCCNC(C)C(=O)Nc1ccccc1C (stereo not drawn) [PRILOCAINE]
Not Active: IC50 [1] | Ki [1] | IC50 [2] | Ki [2] | IC50 [3] | Ki [3] | IC50 [4] | IC50 [5] | IC50 [6] | Ki [6] | IC50 [7] | IC50 [8] | Ki [8]

CCN(CC)CCNC(=O)c1ccc(N)cc1 [PROCAINAMIDE]
Not Active: IC50 [1] | Ki [1] | IC50 [2] | Ki [2] | IC50 [3] | Ki [3] | IC50 [4] | IC50 [5] | IC50 [6] | Ki [6] | IC50 [7] | IC50 [8] | Ki [8]

C[C@]12C=CC(=O)C=C1CC[C@H]1[C@@H]3C[C@@H](O)[C@](O)(C(=O)CO)[C@@]3(C)C[C@H](O)[C@@]12F [TRIAMCINOLONE]
Not Active: IC50 [1] | Ki [1] | IC50 [2] | Ki [2] | IC50 [3] | Ki [3] | IC50 [4] | IC50 [5] | IC50 [6] | Ki [6] | IC50 [7] | IC50 [8] | Ki [8]

CC[C@]1(O)C[C@@H]2CN(CCc3c([nH]c4ccccc34)[C@@](C(=O)OC)(c3cc4c(cc3OC)N(C)[C@H]3[C@@](O)(C(N)=O)[C@H](O)[C@]5(CC)C=CCN6CC[C@]43[C@@H]65)C2)C1 [VINDESINE]
Not Active: IC50 [1] | Ki [1] | IC50 [2] | Ki [2] | IC50 [3] | Ki [3] | IC50 [4] | IC50 [5] | IC50 [6] | Ki [6] | IC50 [7] | IC50 [8] | Ki [8]

CCN(C(C)=O)c1cccc(-c2ccnc3c(C#N)cnn23)c1 [ZALEPLON]
Not Active: IC50 [1] | Ki [1] | IC50 [2] | Ki [2] | IC50 [3] | Ki [3] | IC50 [4] | IC50 [5] | IC50 [6] | Ki [6] | IC50 [7] | IC50 [8] | Ki [8]

COBALTOUS CHLORIDE
Not Active: IC50 [1] | Ki [1] | IC50 [2] | Ki [2] | IC50 [3] | Ki [3] | IC50 [4] | Ki [4] | IC50 [5] | Ki [5] | IC50 [6] | Ki [6] | IC50 [7] | Ki [7] | IC50 [8] | Ki [8]

COLISTIN
Not Active: IC50 [1] | Ki [1] | IC50 [2] | Ki [2] | IC50 [3] | Ki [3] | IC50 [4] | Ki [4] | IC50 [5] | Ki [5] | IC50 [6] | Ki [6] | IC50 [7] | Ki [7] | IC50 [8] | Ki [8]
